The CheMixHub ionic liquid set

Assay: xn = mol fraction of the nth substance listed

N[C@@H](Cc1c[nH]cn1)C(=O)O + CCCC[n+]1ccn(C)c1.F[B-](F)(F)F + O
viscosity [mPa·s], 100 kPa
Conditions	293.15 K	298.15 K	303.15 K	308.15 K	313.15 K	318.15 K
x1 = 0.0002714, x2 = 0.0003602	1.038	0.925	0.843	0.759	0.701	0.646
x1 = 0.0002725, x2 = 0.0007201	1.07	0.959	0.876	0.797	0.744	0.689
x1 = 0.0002736, x2 = 0.00108	1.101	0.991	0.912	0.838	0.787	0.733
x1 = 0.0004522, x2 = 0.0003601	1.041	0.927	0.845	0.761	0.703	0.648
x1 = 0.000454, x2 = 0.00072	1.073	0.962	0.879	0.8	0.747	0.692
x1 = 0.0004559, x2 = 0.00108	1.104	0.994	0.915	0.841	0.79	0.736
x1 = 0.0006329, x2 = 0.00036	1.044	0.93	0.848	0.764	0.706	0.651
x1 = 0.0006355, x2 = 0.0007198	1.076	0.965	0.882	0.803	0.75	0.695
x1 = 0.0006382, x2 = 0.001079	1.107	0.997	0.918	0.844	0.793	0.739
x1 = 0.0008136, x2 = 0.00036	1.047	0.933	0.851	0.767	0.709	0.654
x1 = 0.000817, x2 = 0.0007197	1.079	0.968	0.885	0.806	0.753	0.698
x1 = 0.0008203, x2 = 0.001079	1.11	1	0.921	0.847	0.796	0.742
x1 = 0.0009942, x2 = 0.0003599	1.05	0.936	0.854	0.77	0.712	0.657
x1 = 0.0009983, x2 = 0.0007196	1.082	0.971	0.888	0.809	0.755	0.7
x1 = 0.001002, x2 = 0.001079	1.113	1.003	0.924	0.849	0.799	0.745
x1 = 0.001175, x2 = 0.0003598	1.053	0.939	0.856	0.772	0.714	0.659
x1 = 0.00118, x2 = 0.0007194	1.085	0.974	0.89	0.811	0.758	0.703
x1 = 0.001185, x2 = 0.001079	1.116	1.006	0.927	0.852	0.802	0.748
x1 = 0.001355, x2 = 0.0003598	1.056	0.942	0.859	0.775	0.716	0.661
x1 = 0.001361, x2 = 0.0007193	1.088	0.976	0.893	0.814	0.76	0.705
x1 = 0.001366, x2 = 0.001079	1.119	1.008	0.929	0.855	0.804	0.75
x1 = 0.001536, x2 = 0.0003597	1.059	0.944	0.862	0.777	0.719	0.663
x1 = 0.001542, x2 = 0.0007192	1.091	0.979	0.896	0.816	0.763	0.707
x1 = 0.001548, x2 = 0.001078	1.122	1.011	0.932	0.857	0.806	0.752
x1 = 0.001716, x2 = 0.0003596	1.062	0.947	0.864	0.779	0.721	0.666
x1 = 0.001723, x2 = 0.000719	1.094	0.982	0.898	0.818	0.765	0.71
x1 = 0.00173, x2 = 0.001078	1.125	1.014	0.934	0.86	0.808	0.753

CCCCn1cc[n+](C)c1.O=S(=O)([N-]S(=O)(=O)C(F)(F)F)c1ccc[cH-]1.[Fe+2].c1cc[cH-]c1 + CCCC[n+]1ccn(C)c1.O=S(=O)([N-]S(=O)(=O)C(F)(F)F)C(F)(F)F
Conditions	viscosity [mPa·s]
298.15 K, 100 kPa, x2 = 0.749	184.5

CCO + CCCC[n+]1ccn(C)c1.O=S(=O)([N-]S(=O)(=O)C(F)(F)F)C(F)(F)F
100 kPa, x2 = 0
Conditions	viscosity [mPa·s]
297.55 K	1.11
297.85 K	1.1
298.15 K	1.1
301.48 K	1.04
303.3 K	1.01
309.67 K	0.91
312.7 K	0.86
313 K	0.86
313.3 K	0.85
313.61 K	0.85
316.33 K	0.8
319.36 K	0.76
319.67 K	0.76

Cc1ncc(CO)c(CO)c1O.Cl + CCCC[n+]1ccn(C)c1.[Br-] + O
viscosity [mPa·s], 100 kPa
Conditions	x1 = 0.0002684, x2 = 0	x1 = 0.0005421, x2 = 0	x1 = 0.0008084, x2 = 0	x1 = 0.001085, x2 = 0	x1 = 0.001353, x2 = 0	x1 = 0.001621, x2 = 0
293.15 K	1.007	1.012	1.017	1.022	1.027	1.032
298.15 K	0.895	0.9	0.905	0.91	0.915	0.921
303.15 K	0.801	0.806	0.811	0.816	0.821	0.826
308.15 K	0.722	0.727	0.732	0.737	0.741	0.747
313.15 K	0.657	0.662	0.667	0.671	0.676	0.681

CCO + CCCC[n+]1ccn(C)c1.[Cl-]
Conditions	viscosity [mPa·s]
303.15 K, 101 kPa, x1 = 1	0.99

CCO + CCCC[n+]1ccn(C)c1.[I-]
Conditions	electrical conductivity [S/m]
298.15 K, 100 kPa, x2 = 0	3.98e-05

CC[S+](CC)CC.O=S(=O)([N-]S(=O)(=O)C(F)(F)F)C(F)(F)F + CCCO
Conditions	viscosity [mPa·s]
313.15 K, 100 kPa, x1 = 0.6987	10.75

CCCCCC[N+]1(C)CCCC1.O=S(=O)([N-]S(=O)(=O)C(F)(F)F)C(F)(F)F + CCC[N+]1(C)CCCC1.O=S(=O)([N-]S(=O)(=O)C(F)(F)F)C(F)(F)F
101 kPa
Conditions	electrical conductivity, 313.15 K [S/m]	electrical conductivity, 353.15 K [S/m]	viscosity, 313.15 K [mPa·s]	viscosity, 353.15 K [mPa·s]
x1 = 0.25	0.581	–	38.6	–
x1 = 0.5	–	1.23	–	13.2

Oc1cccc(O)c1O + CCC[N+](CCC)(CCC)CCC.[Br-]
101.3 kPa, x2 = 0.5
Conditions	electrical conductivity [S/m]	viscosity [mPa·s]
293.15 K	0.00158	36500
298.15 K	0.00309	–
303.15 K	0.00531	17000
308.15 K	0.0126	11500
313.15 K	0.0186	6800
333.15 K	0.0967	850

CCO + CCOC(C)(C)C + CCOS(=O)(=O)[O-].CC[n+]1ccn(C)c1
Conditions	viscosity [mPa·s]
298.15 K, 101 kPa, x1 = 1, x2 = 0	1.077

CCO + CCOP(=O)([O-])OCC.CC[N+]1(C)CCCC1
100 kPa, x2 = 0
Conditions	viscosity [mPa·s]
293.15 K	1.18
298.15 K	1.11
303.15 K	0.98
308.15 K	0.89
313.15 K	0.82
318.15 K	0.75
323.15 K	0.69
328.15 K	0.65
333.15 K	0.6
338.15 K	0.56

CCO + CCOP(=O)([O-])OCC.CC[N+]1(C)CCOCC1
100 kPa, x2 = 0
Conditions	viscosity [mPa·s]
293.15 K	1.18
298.15 K	1.11
303.15 K	0.98
308.15 K	0.89
313.15 K	0.82
318.15 K	0.75
323.15 K	0.69
328.15 K	0.65
333.15 K	0.6
338.15 K	0.56

CCO + CCOP(=O)([O-])OCC.CC[n+]1ccn(C)c1
Conditions	viscosity [mPa·s]
318.15 K, 100 kPa, x2 = 0	0.75

CCO + CC[N+]1(C)CCCC1.COP(=O)([O-])OC
100 kPa, x2 = 0
Conditions	viscosity [mPa·s]
308.15 K	0.9
318.15 K	0.75
328.15 K	0.63
333.15 K	0.58

CCO + CC[n+]1ccccc1.N#C[N-]C#N
Conditions	viscosity [mPa·s]
288.15 K, 100 kPa, x1 = 1	1.29

CCO + CC[n+]1ccn(C)c1.COP(=O)([O-])OC
100 kPa, x2 = 0
Conditions	viscosity [mPa·s]
298.15 K	1.08
328.15 K	0.646

CCO + CC[n+]1ccn(C)c1.COS(=O)(=O)[O-]
101 kPa, x2 = 0
Conditions	viscosity [mPa·s]
283.15 K	1.44
293.15 K	1.18
303.15 K	0.98
313.15 K	0.83
323.15 K	0.7

CC[n+]1ccn(C)c1.O=C([O-])[C@@H]1CCCN1 + CC[n+]1ccn(C)c1.N#C[C-](C#N)C#N
Conditions	viscosity [mPa·s]
298.15 K, 101 kPa, x2 = 0	1195

CCO + CC[n+]1ccn(C)c1.N#C[N-]C#N
viscosity [mPa·s]
Conditions	298.15 K	303.15 K	308.15 K	313.15 K	318.15 K	323.15 K	328.15 K
100 kPa, x2 = 0	1.11	1.02	0.93	0.85	0.78	0.71	–
101 kPa, x1 = 1	–	–	–	0.83	–	–	0.64

CCCCn1cc[n+](CCOCCOCCOCC[n+]2ccn(CCCC)c2)c1.N#C[N-]C#N.N#C[N-]C#N + CC[n+]1ccn(C)c1.N#C[N-]C#N + O=S(=O)([N-]S(=O)(=O)C(F)(F)F)C(F)(F)F.[Li+]
100 kPa, x1 = 0.2237, x2 = 0.6826
Conditions	electrical conductivity [S/m]
298 K	0.491
303 K	0.589
313 K	0.812
323 K	1.1
333 K	1.42
343 K	1.79

CC[S+](CC)CCOCCOCCOCCOCC[S+](CC)CC.N#C[N-]C#N.N#C[N-]C#N + CC[n+]1ccn(C)c1.N#C[N-]C#N + O=S(=O)([N-]S(=O)(=O)C(F)(F)F)C(F)(F)F.[Li+]
100 kPa, x1 = 0.2317, x2 = 0.6756
Conditions	electrical conductivity [S/m]
298 K	0.811
303 K	1.16
313 K	1.35
323 K	1.51
333 K	1.93
343 K	2.26

CC[S+](CC)CCOCC[S+](CC)CC.N#C[N-]C#N.N#C[N-]C#N + CC[n+]1ccn(C)c1.N#C[N-]C#N + O=S(=O)([N-]S(=O)(=O)C(F)(F)F)C(F)(F)F.[Li+]
100 kPa, x1 = 0.2884, x2 = 0.6258
Conditions	electrical conductivity [S/m]
298 K	0.519
303 K	0.632
313 K	0.863
323 K	1.17
333 K	1.54
343 K	1.95

CCO + CC[n+]1ccn(C)c1.N#C[S-]
101 kPa, x2 = 0
Conditions	viscosity [mPa·s]
293.15 K	1.18
303.15 K	0.98

Cc1ncc[nH]1 + CC[n+]1ccn(C)c1.[Cl-]
101.33 kPa, x2 = 0.667
Conditions	viscosity [mPa·s]
303.15 K	394
313.15 K	182.1
323.15 K	101.5
333.15 K	57.3
343.15 K	38
353.15 K	27

CCO + CC[n+]1ccn(C)c1.[I-]
Conditions	electrical conductivity [S/m]
298.15 K, 100 kPa, x2 = 0	5.54e-05

CCO + CC[n+]1ccn(CCOC)c1.N#C[S-]
Conditions	viscosity [mPa·s]
308.15 K, 100 kPa, x2 = 0	0.902
